Test results: publication PMC8178997 (Chemical Science, 2020)
Where no end group is shown, it is not given here.

Molecular target: T1, NCBD (the [2066–2112]-fragment of CBP) (Mus musculus, UniProt P45481)
T1 sequence (P45481 2066-2112): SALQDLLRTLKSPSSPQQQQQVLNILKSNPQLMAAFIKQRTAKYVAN
Test: Isothermal titration calorimetry
Type: binding

## EGQMDERALLEQLHQLLSNTDATGLEEIDRALGIPELVNQGQALEPK [[S1043M;D1050E;T1054Q]]
  Kd: 0.188 µM
